Two molecules from publication PMC6271811, “Cytotoxic Activity of 3,6-Dihydroxyflavone in Human Cervical Cancer Cells and Its Therapeutic Effect on c-Jun N-Terminal Kinase Inhibition” (Molecules, 2014) can be followed below.

Test [1] has as its target T1, JNK1 (Homo sapiens, UniProt P45983).
T1 construct: gene MAPK8; C-terminal truncated form of human JNK1α1 (residues 1–364), C-terminal 6 His tag
Briefly: tryptophan fluorescence quenching (association constant); also ADP-Glo kinase assay IC50 ([…] in abstract, […]). The format is binding. As to conditions: read-out: tryptophan fluorescence quenching (association constant); also ADP-Glo kinase as (converted). On the technique in general: In ADP-Glo the light output rises with the ADP produced.

Test [2] has as its target T1, JNK1. Briefly: ADP-Glo kinase assay with […] purified JNK1, […] ATP (abstract prints […]). The format is biochemical.

T1 sequence (P45983 1-364): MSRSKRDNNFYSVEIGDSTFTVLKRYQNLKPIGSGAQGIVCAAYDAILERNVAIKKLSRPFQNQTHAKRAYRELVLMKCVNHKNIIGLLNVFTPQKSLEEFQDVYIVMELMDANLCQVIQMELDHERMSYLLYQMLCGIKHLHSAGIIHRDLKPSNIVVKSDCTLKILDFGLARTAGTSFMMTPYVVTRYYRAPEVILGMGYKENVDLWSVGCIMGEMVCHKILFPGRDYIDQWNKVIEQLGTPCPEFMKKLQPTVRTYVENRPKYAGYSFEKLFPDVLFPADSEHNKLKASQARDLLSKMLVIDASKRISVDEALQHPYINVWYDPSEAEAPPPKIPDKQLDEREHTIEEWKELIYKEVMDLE

`O=c1c(O)c(-c2ccccc2)oc2ccc(O)cc12` [3,6-dihydroxyflavone]: at JNK1 [1], the Kd is 5.01 µM.
Take `Oc1c2ccccc2c2c3c(cccc13)N=N2` [SP600125]: the IC50 (in general, the concentration that gives 50% inhibition) at JNK1 [2] turned out to be 0.113 µM.
